Test results: ChEMBL document CHEMBL1201862, “PubChem BioAssay data set” (2004)
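These data come from cells grown in 96-well plates and exposed to compound for 48 hours at five concentrations. GI50 = concentration required for 50% inhibition of growth.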 Activity calls are given as the source filed them. Cut-off read from the data, not from the text of the source: active = GI50 up to about 1.1 µM and inactive = higher.

Experiments:
Assay in all cases: DTP human tumour cell line panel, 48 h
NCI/ADR-RES = system: NCI/ADR-RES
A498 = system: A498
NCI-H522 = system: NCI-H522
Hs-578T = system: Hs-578T
TK-10 = system: TK-10
MDA-N = system: MDA-N
DU-145 = system: DU-145
ACHN = system: ACHN
Malme-3M = system: Malme-3M
786-0 = system: 786-0
CAKI-1 = system: CAKI-1
EKVX = system: EKVX
MDA-MB-231 = system: MDA-MB-231
SR = system: SR
PC-3 = system: PC-3
T47D = system: T47D
LOX IMVI = system: LOX IMVI
BT-549 = system: BT-549
RPMI-8226 = system: RPMI-8226

SMILES | GI50 (NCI/ADR-RES) | GI50 (A498) | GI50 (NCI-H522) | GI50 (Hs-578T) | GI50 (TK-10) | GI50 (MDA-N) | GI50 (DU-145) | GI50 (ACHN) | GI50 (Malme-3M) | GI50 (786-0) | GI50 (CAKI-1) | GI50 (EKVX) | GI50 (MDA-MB-231) | GI50 (SR) | GI50 (PC-3) | GI50 (T47D) | GI50 (LOX IMVI) | GI50 (BT-549) | GI50 (RPMI-8226)
O=C1Nc2ccccc2/C1=N/NC(=S)Nc1ccccc1Cl | 0.384 µM (active) | 7.96 µM (inactive) | 11.9 µM (inactive) | 2.67 µM (inactive) | 2.1 µM (inactive) | 20.6 µM (inactive) | 9.27 µM (inactive) | 2.19 µM (inactive) | 3.44 µM (inactive) | 1.77 µM (inactive) | 3.8 µM (inactive) | 4.34 µM (inactive) | 11.3 µM (inactive) | < 0.01 µM (active) | 5.93 µM (inactive) | 11.6 µM (inactive) | 2.52 µM (inactive) |  | 
O=C1c2ccccc2C(=O)c2c(OCCOCCO)cccc21 | > 100 µM (inactive) |  | 52.6 µM (inactive) | 20.5 µM (inactive) | 53.6 µM (inactive) |  | > 100 µM (inactive) | 43.9 µM (inactive) | 74.3 µM (inactive) | > 100 µM (inactive) | 21.9 µM (inactive) | > 100 µM (inactive) | 0.935 µM (active) | 66.7 µM (inactive) | 38.1 µM (inactive) | 49.4 µM (inactive) | 50.2 µM (inactive) | > 100 µM (inactive) | 
CCOP(=O)(OCC)C(Cc1ccc(OC)c(OC)c1)N=C(c1ccccc1)c1ccccc1 (configuration not stated) | 44.7 µM (inactive) | 56.8 µM (inactive) | 22.8 µM (inactive) |  | 40.8 µM (inactive) | 59.8 µM (inactive) | 37.2 µM (inactive) | 41.6 µM (inactive) |  |  | 67 µM (inactive) |  | 42.3 µM (inactive) | 6.84 µM (inactive) | 32.4 µM (inactive) | 20.5 µM (inactive) |  | > 100 µM (inactive) | 18.8 µM (inactive)
COc1ccc(OC)c2c1C(=O)C(Cl)=C(N1CCN(CCOCCO)CC1)C2=O | 26.5 µM (inactive) | 16.9 µM (inactive) | 4.3 µM (inactive) | 16.1 µM (inactive) | 19 µM (inactive) |  | 18.6 µM (inactive) | 16.6 µM (inactive) | 19.8 µM (inactive) | 5.78 µM (inactive) |  | 18.9 µM (inactive) | 13.9 µM (inactive) | 3.21 µM (inactive) | 6.37 µM (inactive) | 4.65 µM (inactive) |  | 14.8 µM (inactive) | 2.94 µM (inactive)
Cc1ccc(S(=O)(=O)C2=Cc3ccc(C(F)(F)F)cc3C2(O)c2cccc(C(F)(F)F)c2)cc1 (configuration not stated) | 2.71 µM (inactive) | 2 µM (inactive) | 1.66 µM (inactive) | 3.13 µM (inactive) | 2.47 µM (inactive) | 2.38 µM (inactive) | 3.25 µM (inactive) | 2.46 µM (inactive) | 2.02 µM (inactive) | 1.93 µM (inactive) | 4.05 µM (inactive) | 2.87 µM (inactive) | 2.08 µM (inactive) | 2.43 µM (inactive) | 2.79 µM (inactive) | 3.1 µM (inactive) | 1.91 µM (inactive) | 2.06 µM (inactive) | 2.65 µM (inactive)
CN1C(=O)C2C=C3CCCCC3=CC2N(C)C1=O (configuration not stated) | > 100 µM (inactive) | > 100 µM (inactive) | > 100 µM (inactive) | > 100 µM (inactive) | > 100 µM (inactive) | > 100 µM (inactive) | > 100 µM (inactive) | > 100 µM (inactive) | > 100 µM (inactive) |  | > 100 µM (inactive) | 77.4 µM (inactive) | > 100 µM (inactive) | > 100 µM (inactive) | > 100 µM (inactive) | > 100 µM (inactive) | > 100 µM (inactive) | > 100 µM (inactive) | > 100 µM (inactive)
COCO[C@@H]1C[C@H]2C(O)Nc3ccccc3C(=O)N2C1 (some centres not stated) | > 100 µM (inactive) | > 100 µM (inactive) |  | > 100 µM (inactive) | > 100 µM (inactive) | > 100 µM (inactive) | > 100 µM (inactive) | > 100 µM (inactive) |  |  | > 100 µM (inactive) | > 100 µM (inactive) | > 100 µM (inactive) | > 100 µM (inactive) | > 100 µM (inactive) | > 100 µM (inactive) | > 100 µM (inactive) |  | > 100 µM (inactive)
C[C@H]1C(=O)O[C@@H]2CCN3CC=C(COC(=O)[C@](C)(O)[C@@]1(C)O)[C@H]23 | > 100 µM (inactive) | > 100 µM (inactive) | > 100 µM (inactive) | > 100 µM (inactive) | > 100 µM (inactive) | > 100 µM (inactive) | > 100 µM (inactive) | > 100 µM (inactive) |  | > 100 µM (inactive) | > 100 µM (inactive) | > 100 µM (inactive) | > 100 µM (inactive) |  | > 100 µM (inactive) | > 100 µM (inactive) | > 100 µM (inactive) | > 100 µM (inactive) | > 100 µM (inactive)
